# Measured values from US20040038367A1, “Novel xyloglucan oligosaccharide-degrading enzyme, polynucleotide encoding the enzyme, and method of preparing the enzyme” (NATIONAL INSTITUTE OF ADVANCED INDUSTRIAL SCIENCE AND …, priority 2002, published 2004).
# Target: T1, xyloglucan oligosaccharide-degrading enzyme (Geotrichum sp., UniProt Q8J0D2)
# T1 construct: made in house; host or cells: Geotrichum sp. strain M128 (natural producer; enzyme purified, not recombinant)
# Experiment: Inhibition of the enzyme activity by metal ions
# Assay type: biochemical, Geotrichum sp. strain M128
# Settings: concentration of 1 mM or more
smiles,measurement,value
[Hg+2] [mercury ion],inhibition of the activity of the enzyme,strongly inhibited
